Measured values published in the NIST ThermoML archive (doi:10.1021/je0600810).

Key:
[1] = 101.33 kPa, Liquid; for viscosity: Capillary tube (Ostwald / Ubbelohde) method
[2] = φn = volume fraction of the nth substance listed; settings: 101 kPa, Liquid

CO [methanol]
[1]
Settings	mass density [kg/m3]	viscosity [mPa·s]
298.15 K	786.59	0.5446
308.15 K	777.28	0.4747
318.15 K	767.74	0.4185

CO [methanol] + O
[2]
Settings	mass density, 298.15 K [kg/m3]	mass density, 308.15 K [kg/m3]	mass density, 318.15 K [kg/m3]	viscosity, 298.15 K [mPa·s]	viscosity, 308.15 K [mPa·s]	viscosity, 318.15 K [mPa·s]
φ1 = 0.01	982.97	979.73	976.04	1.084	0.8665	0.702
φ1 = 0.2	969.63	966.32	961.62	1.311	1.022	0.8075
φ1 = 0.3	956.2	951.6	946.26	1.471	1.142	0.8957
